Experiment [1] can be described thus: Growth inhibition of human SUIT-2 cells at 100 uM by WST-8 assay relative to control. In kind it is functional. The note with it: read-out: GI. Background: Tetrazolium dyes change colour on reduction, which living cells bring about.
The test system of another experiment is HepG2. The experiment is described as follows: Growth inhibition of human HepG2 cells at 100 uM by WST-8 assay relative to control. The note with it: read-out: GI. In kind it is functional.
The test system of another experiment is HeLa. Description: Growth inhibition of human HeLa cells at 100 uM by WST-8 assay relative to control. In kind it is functional. The conditions noted are these: read-out: GI.
Experiment [2] has as its system DLD-1. Description: Growth inhibition of human DLD-1 cells at 100 uM by WST-8 assay relative to control. In kind it is functional. The note with it: read-out: GI.
The test system of experiment [3] is K562. Description: Growth inhibition of human K562 cells at 100 uM by WST-8 assay relative to control. In kind it is functional. The conditions noted are these: read-out: GI.
The subject of experiment [4] is K562. The experiment is described as follows: Antiproliferative activity against human K562 cells by WST-8 assay. In kind it is functional, cell-based.
Experiment [5] concerns DLD-1. Description: Antiproliferative activity against human DLD-1 cells by WST-8 assay. In kind it is functional, cell-based.
A short description of experiment [6]: Antiproliferative activity against human SUIT-2 cells by WST-8 assay. In kind it is functional, cell-based.

For `COc1ccc(-c2cc(C(=O)Oc3ccc(C=O)cc3OC)nn2-c2ccccc2)cc1`, the inhibition of growth at 100 µM in experiment [1] is 91%; in the experiment with HepG2, 11%; in the experiment on HeLa, 30%; in the experiment with DLD-1 [2], 61%; in the experiment on K562 [3] it was 61%.
Take `COc1ccc(-c2cc(C(=O)Nc3ccc(S(N)(=O)=O)cc3)nn2-c2ccccc2)cc1OC`: the inhibition of growth at 100 µM in experiment [1] was determined as 91%; in the experiment on HepG2 it was 90%; in the experiment on HeLa, 51%; with DLD-1 [2], 56%; in the experiment on K562 [3] it was 58%.
For orientation: IC50 means the midpoint of a concentration-inhibition curve. Read a high IC50 as weaker potency. As to `COc1cc(C=O)ccc1OC(=O)c1cc(-c2ccc(Cl)cc2)n(-c2ccc(S(N)(=O)=O)cc2)n1`, the figures for the IC50 (in the experiment on K562 [4]; with DLD-1 [5]; in experiment [6]) were 17.1 µM, 5 µM and 49.8 µM, respectively. In addition, the inhibition of growth at 100 µM in experiment [1] turned out to be 94%; in the experiment with HepG2, 54%; in the experiment on HeLa, 51%; with DLD-1 [2], 97%; in the experiment with K562 [3] it was 85%.
For `CS(=O)(=O)c1ccc(NC(=O)c2cc(-c3ccccc3)n(-c3ccccc3)n2)cc1`, the IC50 in the experiment on DLD-1 [5] was found to be 33.1 µM. The inhibition of growth at 100 µM in experiment [1] is 86%; in the experiment on HepG2, 41%; in the experiment on HeLa it was 28%; in the experiment on DLD-1 [2], 81%; in the experiment on K562 [3], 32%.
For the compound `COc1cc(C=O)ccc1OC(=O)c1cc(-c2ccc(Cl)cc2)n(-c2ccccc2)n1`, the inhibition of growth at 100 µM in experiment [1] turned out to be 92%; in the experiment with HepG2 it was 20%; with HeLa, 51%; in the experiment on DLD-1 [2], 74%; in the experiment on K562 [3], 66%.
For the compound `COc1ccc(-c2cc(C(=O)Nc3ccc(S(C)(=O)=O)cc3)nn2-c2ccccc2)cc1`, the inhibition of growth at 100 µM in experiment [1] came out at 90%; in the experiment on HepG2, 62%; in the experiment on HeLa it was 76%; with DLD-1 [2], 64%; in the experiment on K562 [3], 41%. The compound further came in with an IC50 in experiment [6] of 41 µM.
Turning to `COc1ccc(-c2cc(C(=O)Oc3ccc(C=O)cc3OC)nn2-c2ccccc2)cc1OC`, the inhibition of growth at 100 µM in experiment [1] is 86%; in the experiment on HepG2, 74%; in the experiment on HeLa, 0%; with DLD-1 [2], 96%; in the experiment with K562 [3], 58%.
With `COc1ccc(-c2cc(C(=O)Oc3ccc(C=O)cc3OC)nn2-c2ccc(S(N)(=O)=O)cc2)cc1OC`, the inhibition of growth at 100 µM in experiment [1] came out at 66%; with HepG2 it was 92%; in the experiment with HeLa, 70%; with DLD-1 [2] it was 75%; in the experiment on K562 [3], 77%.
Take `COc1ccc(-c2cc(C(=O)Nc3ccc(S(C)(=O)=O)cc3)nn2-c2ccccc2)cc1OC`: the inhibition of growth at 100 µM turned out to be 89% in experiment [1]; 37% with HepG2; 19% in the experiment with HeLa; 74% with DLD-1 [2]; 62% with K562 [3].
On the same counts, the results for `COc1cc(C=O)ccc1OC(=O)c1cc(-c2ccccc2)n(-c2ccccc2)n1` are 91%, 60%, 31%, 71% and 52%.
For the compound `COc1ccc(-c2cc(C(=O)Nc3ccc(S(N)(=O)=O)cc3)nn2-c2ccccc2)cc1`, the inhibition of growth at 100 µM came to 78% in experiment [1]; 26% with HepG2; 74% with HeLa; 69% in the experiment with DLD-1 [2]; 26% in the experiment with K562 [3].

For the origin of these results see ChEMBL document CHEMBL5579808, “Development of 1,5-diarylpyrazoles as EGFR/JNK-2 dual inhibitors: design, synthesis, moleecular docking, and bioactivity evaluation” (Bioorg Med Chem Lett, 2024).
